Results as given in US20220133662A1, “ORAL DRUG, ADJUVANT CANCER THERAPY, AND PET THERAPEUTIC DIET” (priority 2019, published 2022).

What was measured:
[1] = cited from earlier work
[2] = Ketone body concentration in the blood after a single ingestion in yogurt; type: in vivo; settings: humans, 500 mg/kg of body weight in yogurt (200 g)
Description: PHB was extracted from OITC1261 by the method for purifying the powdered PHB shown in Example 2 (purity: 90%, weight-average molecular weight: 590,000). Ketone ester and PHB whose amounts were adjusted such that the intake thereof was 500 mg/kg of body weight were mixed uniformly in yogurt (200 g) and fed to humans. The ketone body concentration in the blood was measured using a ketone body value electrode (FS Precision ketone measurement electrode) of Precision Exceed (Abbott) every other hour. After ketone bodies were confirmed to be stable, plain yogurt was ingested.
The horizontal axis of the graph in FIG. 8 represents time. The vertical axis represents the ketone body concentration in the blood. Squares represent changes in the ketone body concentration in the blood over time in a group that ingested plain yogurt mixed with ketone ester. […]
The powdered PHB and ketone bodies whose amounts were adjusted such that the intake thereof was 500 mg, 300 mg, 100 mg, or 0 mg/kg of body weight were mixed uniformly in yogurt (200 g) and fed to humans. […] The ketone body concentration in the blood over time was measured using a ketone body value electrode (FS Precision ketone measurement electrode) of Precision Exceed (Abbott) every other hour. […]

COS7 cells = assay: Survival rate of COS7 cells (MTT), ketone donors alone or with cisplatin; type: cell-based; settings: 1 mM ketone donor added with cisplatin, versus untreated group
Description: (§1) COS7 cells, that are a renal cytoblastoma, were used. Subconfluent cells were spread on 24-well plates at a density of 40,000 cells/cm^2 and cultured in Dulbecco's Modified Eagle Medium (D-MEM) containing 10% of inactivated fetal bovine serum for one hour. Various concentrations of ketone bodies (HB) and ketone ester (KE) were added to the culture medium of COS7 cells and cultured for 24 hours. After 24 hours of culturing, the culture medium was removed, and COS7 cells were cultured for two hours in PBS with 1 mg/ml of a chromogenic reagent 3-(4,5-dimethylthiazol-2-yl)-2,5-diphenyl tetrazolium bromide (MTT, Wako Pure Chemical Corporation).
(§2) After the culturing, cell lysis solution (50% formamide, 20% sodium dodecyl sulfate) was added and left for 24 hours. Thereafter, the absorbance at 540 nm was measured using an absorbance measurement device (Biorad microplate reader), and the measured absorbance was used to calculate survival rates of COS7 cells.

[3] = in vivo; cited from earlier work
Hela cells = assay: Survival rate of Hela cells (MTT), ketone donors alone or with cisplatin; type: cell-based; settings: 1 mM ketone donor with 0.3-3 μM of cisplatin, versus untreated group
Description: as §1, §2

time after ingestion at which ketone body concentration in the blood returns to the original level [2]	SMILES	increase of the ketone body concentration in the blood ([1]; ketone ester ingested)	adjuvant effect on toxicity caused by cisplatin (COS7 cells)	share of ketone bodies transferred to the brain [3]	time in which ketone body concentration in the blood increases after ingestion ([1]; ketone bodies ingested)	adjuvant effect on toxicity caused by cisplatin (Hela cells)
about five	C[C@@H](O)CCOC(=O)C[C@@H](C)O [ketone ester, 3-hydroxybutyl-3-hydroxybutyric acid]	several mM in a few minutes	–	–	–	–
–	C[C@@H](O)CC(=O)O [ketone bodies, (R)-3-β-hydroxybutyric acid]	–	significantly promoted the toxic effect caused by cisplatin	20-30%	within a few minutes	significantly promoted the toxic effects due to cisplatin
